Measured values reported in US6274715A, “Tricyclic erythromycin derivatives” (priority 1997, dated 2001).
In brackets after ≈: the same amount, converted by molar mass.

Columns and labels:
Type in all cases: cell-based
PSEUDOMONAS CEPACIA 296I = assay: In vitro antibacterial activity, MIC, BHI agar dilution; details: P. cepacia 296I, unit assumed
[1] = test system: STAPHYLOCOCCUS AUREUS 1775; assay: as above; details: S. aureus 1775, unit assumed
[2] = test system: PSEUDOMONAS AERUGINOSA DPHD-2862; assay: as above; details: P. aeruginosa DPHD-2862, unit assumed
ESCHERICHIA COLI KNK 437 = details: E. coli KNK 437; BHI agar; unit assumed
[3] = test system: PSEUDOMONAS AERUGINOSA DPHD-5263; assay: In vitro antibacterial activity, MIC, BHI agar dilution; details: P. aeruginosa DPHD-5263, unit assumed
[4] = test system: STAPHYLOCOCCUS AUREUS CMX 553; assay: as above; details: S. aureus CMX 553, unit assumed
[5] = test system: STAPHYLOCOCCUS EPIDERMIDIS 3519; details: S. epidermidis 3519; BHI agar; unit assumed
[6] = test system: STREPTOCOCCUS PYOGENES EES61; assay: In vitro antibacterial activity, MIC, BHI agar dilution; details: S. pyogenes EES61, unit assumed
CANDIDA ALBICANS CCH 442 = assay: as above; details: C. albicans CCH 442, unit assumed
[7] = test system: STAPHYLOCOCCUS AUREUS ATCC 6538P; assay: as above; details: S. aureus ATCC 6538P, 35-37° C., 20 to 24 hours, unit assumed
[8] = test system: ENTEROBACTER AEROGENES ATCC 13048; assay: as above; details: E. aerogenes ATCC 13048, unit assumed
ESCHERICHIA COLI JUHL = details: E. coli JUHL; BHI agar; unit assumed
[9] = test system: STREPTOCOCCUS PYOGENES PIU 2548; assay: In vitro antibacterial activity, MIC, BHI agar dilution; details: S. pyogenes PIU 2548, unit assumed
[10] = test system: STAPHYLOCOCCUS AUREUS A-5278; assay: as above; details: S. aureus A-5278, unit assumed
[11] = test system: PSEUDOMONAS AERUGINOSA 5007; assay: as above; details: P. aeruginosa 5007, unit assumed
[12] = test system: PSEUDOMONAS AERUGINOSA K799/61; assay: as above; details: P. aeruginosa K799/61, unit assumed
M[…] ATCC 9341 = assay: as above; details: M. luteus ATCC 9341, unit assumed
Method in brief: (§1)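 BHI agar dilution: twelve plates with successive compound dilutions, inoculated by replicator with 1:100 culture dilutions (1:10 for slow growers such as Micrococcus and Streptococcus), 20 to 24 hours at 35-37° C. MIC was the lowest concentration giving no growth, slight haze or sparse isolated colonies versus drug-free control; erythromycin A as class reference.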

STR[…] 508 = assay: as above; details: S. agalactiae CMX 508, unit assumed
Method in brief: as §1

M[…] ATCC 4698 = assay: as above; details: M. luteus ATCC 4698, unit assumed
Method in brief: as §1

EN[…] ATCC 8043 = assay: as above; details: E. faecium ATCC 8043, unit assumed
Method in brief: as §1

[13] = test system: STREPTOCOCCUS BOVIS A-5169; assay: as above; details: S. bovis A-5169, unit assumed
ESCHERICHIA COLI H560 = assay: as above; details: E. coli H560, unit assumed
ESCHERICHIA COLI SS = assay: as above; details: E. coli SS, unit assumed
[14] = test system: STAPHYLOCOCCUS AUREUS A5177; assay: as above; details: S. aureus A5177, unit assumed
[15] = test system: STAPHYLOCOCCUS AUREUS CMX 642A; assay: as above; details: S. aureus CMX 642A, unit assumed
[16] = test system: ACINETOBACTER CALCOACETICUS CMX 669; assay: as above; details: A. calcoaceticus CMX 669, unit assumed
[17] = test system: MYCOBACTERIUM SMEGMATIS ATCC 114; assay: as above; details: M. smegmatis ATCC 114, unit assumed
[18] = test system: STAPHYLOCOCCUS AUREUS NCTC10649M; assay: as above; details: S. aureus NCTC10649M, unit assumed
[19] = test system: PSEUDOMONAS AERUGINOSA K799/WT; assay: as above; details: P. aeruginosa K799/WT, unit assumed
[20] = test system: KLEBSIELLA PNEUMONIAE ATCC 8045; assay: as above; details: K. pneumoniae ATCC 8045, unit assumed
ESCHERICHIA COLI DC-2 = assay: as above; details: E. coli DC-2, unit assumed
[21] = test system: PROVIDENCIA STUARTII CMX 640; details: P. stuartii CMX 640; BHI agar; unit assumed
[22] = test system: PSEUDOMONAS AERUGINOSA BMH10; assay: In vitro antibacterial activity, MIC, BHI agar dilution; details: P. aeruginosa BMH10, unit assumed
[23] = test system: STREPTOCOCCUS PYOGENES 930; assay: as above; details: S. pyogenes 930, unit assumed

| SMILES | MIC (PSEUDOMONAS CEPACIA 296I) [µg/mL] | MIC [1] [µg/mL] | MIC [2] [µg/mL] | MIC (ESCHERICHIA COLI KNK 437) [µg/mL] | MIC [3] [µg/mL] | MIC [4] [µg/mL] | MIC [5] [µg/mL] | MIC [6] [µg/mL] | MIC (CANDIDA ALBICANS CCH 442) [µg/mL] | MIC [7] [µg/mL] | MIC [8] [µg/mL] | MIC (ESCHERICHIA COLI JUHL) [µg/mL] | MIC [9] [µg/mL] | MIC [10] [µg/mL] | MIC [11] [µg/mL] | MIC [12] [µg/mL] | MIC (M[…] ATCC 9341) [µg/mL] | MIC (STR[…] 508) [µg/mL] | MIC (M[…] ATCC 4698) [µg/mL] | MIC (EN[…] ATCC 8043) [µg/mL] | other results |
| --- | --- | --- | --- | --- | --- | --- | --- | --- | --- | --- | --- | --- | --- | --- | --- | --- | --- | --- | --- | --- | --- |
| CC[C@H]1OC(=O)[C@H](C)C(=O)[C@H](C)[C@@H](O[C@@H]2O[C@H](C)C[C@H](N(C)C)[C@H]2O)[C@](C)(OC)C[C@@H](C)C2=N[C@@H]3CCC[C@@H]3N3C(=O)O[C@@]1(C)[C@H]3[C@H]2C [Example 17] | > 100 | > 100 | > 100 | > 100 | > 100 | 0.78 (≈ 1.15 µM) | 0.78 (≈ 1.15 µM) | 0.05 (≈ 0.0738 µM) | > 100 | 0.78 (≈ 1.15 µM) | > 100 | > 100 | 0.39 (≈ 0.575 µM) | > 100 | > 100 | 12.5 (≈ 18.4 µM) | 0.1 (≈ 0.148 µM) | 0.05 (≈ 0.0738 µM) | 0.78 (≈ 1.15 µM) | 0.2 (≈ 0.295 µM) | MIC [13]: 0.02 µg/mL (≈ 0.0295 µM); MIC (ESCHERICHIA COLI H560): 100 µg/mL (≈ 148 µM); MIC (ESCHERICHIA COLI SS): 0.78 µg/mL (≈ 1.15 µM); MIC [14]: 0.78 µg/mL (≈ 1.15 µM); MIC [15]: 0.78 µg/mL (≈ 1.15 µM); MIC [16]: 100 µg/mL (≈ 148 µM); MIC [17]: 12.5 µg/mL (≈ 18.4 µM); MIC [18]: 0.78 µg/mL (≈ 1.15 µM); MIC [19]: > 100 µg/mL; MIC [20]: > 100 µg/mL; MIC (ESCHERICHIA COLI DC-2): > 100 µg/mL; MIC [21]: > 100 µg/mL; MIC [22]: > 100 µg/mL; MIC [23]: > 100 µg/mL |
| CC[C@H]1OC(=O)[C@H](C)C(=O)[C@H](C)[C@@H](O[C@@H]2O[C@H](C)C[C@H](N(C)C)[C@H]2O)[C@](C)(OC)C[C@@H](C)C2=N[C@@H]3CN(Cc4ccc(Cl)cc4)C[C@@H]3N3C(=O)O[C@@]1(C)[C@H]3[C@H]2C [Example 24] | > 100 | > 100 | > 100 | > 100 | > 100 | 0.78 (≈ 0.971 µM) | 0.78 (≈ 0.971 µM) | 0.05 (≈ 0.0622 µM) | > 100 | 0.78 (≈ 0.971 µM) | > 100 | > 100 | 0.78 (≈ 0.971 µM) | > 100 | > 100 | 6.2 (≈ 7.72 µM) | 0.2 (≈ 0.249 µM) | 0.2 (≈ 0.249 µM) | 0.78 (≈ 0.971 µM) | 0.2 (≈ 0.249 µM) | MIC [13]: 0.05 µg/mL (≈ 0.0622 µM); MIC (ESCHERICHIA COLI H560): > 100 µg/mL; MIC (ESCHERICHIA COLI SS): 6.2 µg/mL (≈ 7.72 µM); MIC [14]: 0.78 µg/mL (≈ 0.971 µM); MIC [15]: 0.78 µg/mL (≈ 0.971 µM); MIC [16]: > 100 µg/mL; MIC [17]: 1.56 µg/mL (≈ 1.94 µM); MIC [18]: 0.78 µg/mL (≈ 0.971 µM); MIC [19]: > 100 µg/mL; MIC [20]: > 100 µg/mL; MIC (ESCHERICHIA COLI DC-2): > 100 µg/mL; MIC [21]: > 100 µg/mL; MIC [22]: > 100 µg/mL; MIC [23]: 100 µg/mL (≈ 124 µM) |
